From ChEMBL document CHEMBL1201862, “PubChem BioAssay data set” (2004) come the findings set out here.

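Following 48 hours of exposure in 96-well plates, responses at five concentrations were used to interpolate endpoints linearly. Abbreviation: GI50, concentration required for 50% inhibition of growth.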 The source made the active and inactive calls. No stated cut-off is given here; in the data, active = GI50 up to about 1.1 µM and inactive = higher.

Common to all, as to experiment: NCI-60 cell line screen, 48 h
Experiment [1] deals with ACHN.
The test system of experiment [2] is EKVX.
In experiment [3] the test system is HCT-15.
Experiment [4] relates to HOP-92.
The test system of experiment [5] is K562.
Experiment [6] deals with LXFL 529.
Experiment [7] concerns M14.
Experiment [8] deals with Malme-3M.
Experiment [9] has as its system NCI-H460.
Experiment [10] has as its system OVCAR-4.
Experiment [11] has as its system SF-539.
Experiment [12] deals with SK-MEL-2.
For experiment [13], the system named is SK-OV-3.
Experiment [14] concerns SNB-78.
Experiment [15] relates to TK-10.
Experiment [16] concerns UO-31.
Experiment [17] relates to KM12.
Experiment [18] deals with SF-295.

As for `COC(=O)C(CC(=O)Nc1ccc(C)cc1)C(=O)C(=O)Nc1c(C(C)C)cccc1C(C)C` (centres undefined), the GI50 in [1] was > 100 µM (inactive); in experiment [2] it was > 100 µM (inactive); in experiment [3], 48.6 µM; in [4], > 100 µM (inactive); in experiment [5] it was > 100 µM (inactive); in experiment [6], 99.1 µM (inactive). Also, the GI50 in [7], in experiment [8], in experiment [9], in experiment [10], in experiment [11] and in [12] was > 100 µM (inactive) each time. The GI50 in [13], in [14], in experiment [15] and in experiment [16] was > 100 µM (inactive) each time.
For `O=[N+]([O-])c1cc(I)cc(/C=N/NS(=O)(=O)c2ccc(F)cc2)c1O`, the GI50 in experiment [1] was 30.7 µM (inactive); in [2], 30.7 µM (inactive); in experiment [3], 27.3 µM; in experiment [4] it was 18.3 µM (inactive); in experiment [5] it was 21.6 µM (inactive); in [17] it was 25.5 µM (inactive). Further, the GI50 was 20.7 µM (inactive) in experiment [6]; 27.5 µM (inactive) in experiment [7]; 21.2 µM (inactive) in experiment [8]; 21.9 µM (inactive) in experiment [9]; 38.5 µM (inactive) in [10]; 33.2 µM (inactive) in experiment [18]. Moreover, the GI50 in [11] was 27.1 µM (inactive); in experiment [12] it was 18 µM (inactive); in [13] it was 27.4 µM (inactive); in experiment [14], 23.3 µM (inactive); in experiment [15], 28.6 µM (inactive); in experiment [16], 26.2 µM (inactive).
With `Cc1nc2cc3nc4ccccc4c(O)c3cc2s1`, the GI50 was > 100 µM (inactive) in experiment [1]; > 100 µM (inactive) in experiment [2]; above 100 µM in experiment [3]; > 100 µM (inactive) in experiment [4]; > 100 µM (inactive) in experiment [5]; > 100 µM (inactive) in experiment [17]. The GI50 in experiment [6], in [7], in [8], in experiment [9], in experiment [10] and in [18] was > 100 µM (inactive) each time. Also, the GI50 in experiment [11], in experiment [12], in [13], in experiment [14], in experiment [15] and in experiment [16] was > 100 µM (inactive) in each case.
As to `COC1C2C=CC(C2)[C@H]1[N+](=O)[O-]` (some centres undefined), the GI50 in experiment [1] is > 100 µM (inactive); in [2], > 100 µM (inactive); in [3], above 100 µM; in experiment [4], > 100 µM (inactive); in experiment [5] it was > 100 µM (inactive); in experiment [17], > 100 µM (inactive). Moreover, the GI50 in [6], in experiment [7], in [8], in [9], in experiment [10] and in experiment [18] was > 100 µM (inactive) each time. Besides, the GI50 in experiment [11], in [12], in experiment [13], in [14], in experiment [15] and in experiment [16] was > 100 µM (inactive) throughout.
As to `NC(=S)N/N=C1\C(=O)N(c2cccc([N+](=O)[O-])c2)C(=O)C1C(=O)Nc1cccc([N+](=O)[O-])c1` (centres undefined), the GI50 is > 100 µM (inactive) in [1]; > 100 µM (inactive) in experiment [2]; above 100 µM in experiment [3]; > 100 µM (inactive) in experiment [4]; > 100 µM (inactive) in experiment [5]; > 100 µM (inactive) in experiment [6]. Also, the GI50 in experiment [7], in experiment [8], in experiment [10], in experiment [18], in experiment [11] and in experiment [12] was > 100 µM (inactive) throughout. Moreover, the GI50 in experiment [13], in experiment [14], in experiment [15] and in [16] was > 100 µM (inactive) in each case.
For `CCOC(=O)C(=O)Nc1c(C(C)C)cccc1C(C)C`, the GI50 in experiment [1] is > 100 µM (inactive); in [2], > 100 µM (inactive); in [3], above 100 µM; in experiment [4], > 100 µM (inactive); in experiment [17], > 100 µM (inactive); in experiment [6] it was > 100 µM (inactive). Further, the GI50 in experiment [7], in [8], in [9], in experiment [10], in experiment [18] and in experiment [11] was > 100 µM (inactive) each time. In addition, the GI50 in experiment [12], in experiment [13], in experiment [14], in experiment [15] and in [16] was > 100 µM (inactive) each time.
Turning to `O=[N+]([O-])c1ccc(-c2csc(=[N+]3CCCCC3)s2)cc1`, the GI50 in experiment [1] was 40.6 µM (inactive); in experiment [2], 18 µM (inactive); in [3] it was 29.2 µM; in experiment [4], 26.1 µM (inactive); in experiment [5] it was 9.71 µM (inactive); in [17], 4.13 µM (inactive). Further, the GI50 in [6] was 5.93 µM (inactive); in experiment [7], 36.1 µM (inactive); in [8], 12.1 µM (inactive); in experiment [9] it was 13.6 µM (inactive); in experiment [10], 18.5 µM (inactive); in experiment [18], 2.71 µM (inactive). The GI50 is 19.8 µM (inactive) in experiment [11]; 24.9 µM (inactive) in [12]; 37.7 µM (inactive) in experiment [13]; 44.1 µM (inactive) in experiment [14]; > 83.4 µM (inactive) in experiment [15]; > 68.1 µM (inactive) in experiment [16].
Regarding `N#CC(C(=O)C(=O)NCCCNC(=O)C(=O)C(C#N)c1ccccc1)c1ccccc1` (centres undefined), the GI50 in experiment [1] is > 100 µM (inactive); in experiment [2], > 100 µM (inactive); in experiment [3], above 100 µM; in [4], > 100 µM (inactive); in experiment [5], > 100 µM (inactive); in [17], > 100 µM (inactive). For the same molecule, the GI50 in experiment [6], in [7], in experiment [8], in experiment [9], in experiment [10] and in experiment [18] was > 100 µM (inactive) throughout. In addition, the GI50 in [11], in experiment [12], in [13], in experiment [14], in experiment [15] and in experiment [16] was > 100 µM (inactive) throughout.
On to `Cc1ccc(S(=O)(=O)C2c3nc4ccccc4cc3-c3nc4ccccc4nc32)cc1` (centres undefined), for which the GI50 in experiment [1] was > 100 µM (inactive); in experiment [2], > 100 µM (inactive); in experiment [3], above 100 µM; in experiment [4], > 100 µM (inactive); in [5], > 100 µM (inactive); in experiment [17] it was > 100 µM (inactive). In addition, the GI50 in [6] is > 100 µM (inactive); in [7] it was > 100 µM (inactive); in experiment [8], > 100 µM (inactive); in experiment [9] it was > 10 µM (inactive); in experiment [10], > 100 µM (inactive); in experiment [11], > 100 µM (inactive). Moreover, the GI50 in experiment [12] is > 100 µM (inactive); in experiment [13], 0.693 µM (active); in experiment [14], 67 µM (inactive); in [15], > 100 µM (inactive); in experiment [16], > 100 µM (inactive).
For `CN(C)CC1CCCC/C1=N/O` (centres undefined), the GI50 in experiment [1] is > 100 µM (inactive); in experiment [2], > 100 µM (inactive); in experiment [3], above 100 µM; in experiment [4], > 100 µM (inactive); in experiment [5], > 100 µM (inactive); in experiment [17], > 100 µM (inactive). Also, the GI50 in [6], in experiment [7], in experiment [8], in [9], in experiment [10] and in experiment [18] was > 100 µM (inactive) in each case. For the same molecule, the GI50 in [11], in experiment [12], in [13], in experiment [14], in experiment [15] and in experiment [16] was > 100 µM (inactive) each time.
For the molecule `Cc1cc(C)nc(Sc2c([N+](=O)[O-])ncn2C)n1`, the GI50 is > 100 µM (inactive) in [1]; > 100 µM (inactive) in experiment [2]; > 100 µM (inactive) in experiment [4]; > 100 µM (inactive) in experiment [5]; > 100 µM (inactive) in [17]; 99.8 µM (inactive) in experiment [6]. Also, the GI50 in experiment [7] was > 100 µM (inactive); in [8] it was 94.6 µM (inactive); in [9] it was > 100 µM (inactive); in [10], > 100 µM (inactive); in experiment [18], > 100 µM (inactive); in [11], > 100 µM (inactive). Besides, the GI50 in [12], in [13], in experiment [14], in experiment [15] and in experiment [16] was > 100 µM (inactive) in each case.
Consider `Nc1c(S(=O)(=O)c2ccc(Cl)cc2)c2nc3ccccc3nc2n2ccnc12`, for which the GI50 in experiment [1] is 40.3 µM (inactive); in experiment [2], 93.8 µM (inactive); in experiment [3] it was above 100 µM; in [4] it was > 100 µM (inactive); in [5] it was > 100 µM (inactive); in experiment [17] it was > 100 µM (inactive). Moreover, the GI50 in experiment [6] is > 100 µM (inactive); in [7], > 100 µM (inactive); in [8], > 100 µM (inactive); in [9], 63.4 µM (inactive); in experiment [10], 14.5 µM (inactive); in experiment [18] it was > 100 µM (inactive). Further, the GI50 in experiment [11] is 17.4 µM (inactive); in experiment [12], > 100 µM (inactive); in experiment [13], 38.4 µM (inactive); in experiment [14], > 100 µM (inactive); in experiment [15] it was 24.9 µM (inactive); in experiment [16] it was > 100 µM (inactive).
